The test system of one assay is BxPC3 [Ca2+]i. The assay is described as follows: Intracellular calcium, fluo-4 epifluorescence, BxPC3. It counts as cell-based, human. As to conditions: for alterations in [Ca2+]i: BxPC3, single treatment, monitored for 500 seconds, 0.02 ng/ml TGFβ1, 10 nM S100A8, 10 nM S100A9. How it is done:
BxPC3 and MiaPaCa2 cells, seeded (80 × 10^3 cells) on coverslips that had been inserted within each well of six well culture plates, were kept in their respective complete media for 24 hours. Coverslips were then incubated for 10 min at 37°C with 3 μM fluo-4 AM (Invitrogen S.R.L.) in an imaging buffer containing 137 mM NaCl, 5 mM KCl, 1.2 mM MgCl2, 0.44 mM KH2PO4, 4.2 mM NaHCO3, 5 mM glucose, and 20 mM HEPES pH 7.4. The cells were carefully washed with the imaging buffer after its removal. Calcium oscillations were then analyzed by means of an inverted epifluorescence microscope equipped with a top stage incubator (Tokai Hit INU-F1, Tokai Hit, Shizuoka-Ken, Japan) in order to keep cells in the optimal culturing environment. As an illumination source, we used a mercury arc discharge lamp and selected excitation and emission wavelengths with an FITC filter cube (EX 465–495 DM505 EM 515–555 nm). Use was made of an 60X1.45NA objective (Nikon Instruments S.P.A., Firenze, Italy) and, in order to minimize phototoxicity and photobleaching, a back-thinned electron multiplied CCD camera C9100-13 Imagem (Hamamatsu Photonics Italia S.R.L., Milano, Italy). After the first minute, required to achieve optimal culture conditions, intracellular fluorescence was continuously monitored (3 frames/sec) for 12 min. In all experiments, […], the cells were maintained in imaging buffer for the first 2 minutes, after which they were stimulated with 10 nM S100A8, 10 nM S100A9 and 50 nM NT-S100A8, alone or in combination with 0.02 ng/ml TGFβ1. For all stimuli, additions were made directly to the microscope chamber without interrupting the recording. The fluorescence signal was quantified by measuring the mean pixel value of a manually selected cellular area for each frame of the image stack using the HCimage system (Hamamatsu Photonics Italia S.R.L.). For all the experimental conditions, at least 3 independents sets of experiments were performed.
A general note: A change in cytosolic calcium serves as a functional read-out for many receptors and channels.

The next assay deals with Panc1. The assay can be described thus: XTT cell viability assay, Panc1. Conditions: 48 hours, TGFβ1 0.02 ng/ml, NT-S100A8 50 nM, S100A8 10 nM, S100A9 10 nM, alone or combined, at least three independent experiments in quadruplicate. It counts as cell-based, human. How it is done:
BxPC3, Capan1, MiaPaCa2, Panc1 and BxPC3-SMAD4+ cells were seeded (2000 cells per well) in 96-well cell culture plates and cultured in complete media for 24 hours. Media were then replaced with fresh cell culture media in absence (control) or in presence of TGFβ1 (0.02 ng/ml) and NT-S100A8 (50 nM), alone or combined or in absence (control) or in presence of TGFβ1 (0.02 ng/ml), S100A8 (10 nM) and S100A9 (10 nM) alone or combined. Cell growth was assessed after 48 hours using the XTT cell viability test (Roche, Milano, Italy). At least three independent experiements, each made in quadruplicate, were run. The results were expressed as percentage with respect to the median Abs450nm of control cells run in the same experimental set.

In another assay the target is T1, TGFβ1 (Homo sapiens, UniProt P01137).
T1 construct: purchased ProSpec-Tany TechnoGene
T1 sequence (P01137 279-390 limits assumed): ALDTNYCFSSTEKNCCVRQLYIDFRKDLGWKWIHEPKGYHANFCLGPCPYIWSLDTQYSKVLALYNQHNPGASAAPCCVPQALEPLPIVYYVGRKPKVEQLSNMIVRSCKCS
The assay is described as follows: Molecular interactions by MALDI-TOF/MS and co-immunoprecipitation. Conditions: for co-immunoprecipitation with TGFβ1: 1.6 μM equimolar with CaCl2, 37°C overnight, IP anti-S100A8 or anti-S100A9, WB TGFβ1; for homo-oligomer formation: 11.3 μM with Ca2+; for homo-oligomer formation / hetero-dimer formation with TGFβ1: overnight, MALDI-TOF/MS; for hetero-dimer formation with TGFβ1: 1:1 molar ratio (11.3 μM) with Ca2+. It counts as binding. Here is the method:
Co-immunoprecipitation experiments were performed using protein G-Sepharose (GE Healthcare Technologies). TGFβ1 (1.6 μM) was incubated in equimolar concentrations with S100A8 or S100A9 at 37°C overnight in the presence of equimolar CaCl2. The mixtures were then incubated for 2 h with anti-S100A8 polyclonal or anti-S100A9 monoclonal antibodies (Santa Cruz Biotechnology) preadsorbed to protein G. Immunoprecipitates, washed three times in 10 mM Tris HCl containing 40 mM NaCl, pH 7.5, were boiled in an SDS-PAGE sample buffer before electrophoresis on 4–12% NuPAGE®NovexBis-Tris SDS–PAGE gels. After protein transfer, nitrocellulose membranes were blotted with anti-TGFβ1 antibody (Cell Signaling Technology).
S100A8, S100A9 and TGFβ1 and calcium ions (CaCl2) were mixed at an equimolar concentration (11.3 μM) in an aqueous solution. Each mixture was incubated overnight at 37°C prior to MALDI-TOF/MS analysis. S100A8, S100A9 and TGFβ1 mixtures were diluted 1/10 in 50 μL of 0.1% TFA aqueous solution, after which 5 microliters of each dilution were added to 5 μl of Sinapinic acid (SA); 1 μl of the resulting mixture was deposited in duplicate on the steel sample holder and allowed to dry. External mass calibration (Protein Calibration Standard II, BrukerDaltonics) was based on monoisotopic values of [M + H] + of Trypsinogen, Protein A, Albumin-Bovine (BSA), at m/z 23982, 44613, 66500, respectively. MALDI-TOF/MS measurements were performed using an Ultraflex II MALDI-TOF instrument (BrukerDaltonics), operating in linear positive ion mode. Ions were formed using a pulsed UV laser (λ = 337 nm) beam. The instrumental conditions were: IS1 = 25 kV; IS2 = 23.35 kV; delay time = 70 nsec. All chemicals and solvents were purchased from Sigma-Aldrich (Sigma Aldrich). One spectrum was collected for each sample, an average of 1,000 laser shots being obtained from the respective two replicate spots.

For “NT-S100A8: 14 N-terminal aminoacid peptide of S100A8, isolated from PDAC tissues (MLTELEKALNSIID; UniProt P05109 1-14, looked up, fragment)”, the “effect of TGFβ1 on the induced [Ca2+]i oscillations” value in the assay on BxPC3 [Ca2+]i (BxPC3, combination with 0.02 ng/ml TGFβ1) was “synergized and accelerated by TGFβ1”.

On to “S100A8: inflammatory calcium binding protein S100A8 (ProSpec-Tany TechnoGene)”, for which the “Panc1 % to Control Mean± SEM” value with Panc1 was 93.16 ± 3.65 % to Control. Moreover, the “alterations in [Ca2+]i” value with BxPC3 [Ca2+]i was “did not determine evident alterations in [Ca^2+]i”. In addition, in the assay with TGFβ1, the “co-immunoprecipitation with TGFβ1” value is “TGFβ1 was detected”; the homo-oligomer formation result is reported as “formed homo-dimers”; the “hetero-dimer formation with TGFβ1” value was “formed hetero-dimers not only between themselves, but also with TGFβ1”.

As to “S100A9: inflammatory calcium binding protein S100A9, S100A8 binding partner”, the “Panc1 % to Control Mean± SEM” value in the assay with Panc1 was 96.72± 4.43 % to Control. Besides, the “alterations in [Ca2+]i” value with BxPC3 [Ca2+]i was “did not determine evident alterations in [Ca^2+]i”. Further, in the assay with TGFβ1, the “co-immunoprecipitation with TGFβ1” value is “TGFβ1 was detected”; the homo-oligomer formation entry is “formed homo-dimers and homo-trimers”; the “hetero-dimer formation with TGFβ1” value is reported as “formed hetero-dimers not only between themselves, but also with TGFβ1”.

“TGFβ1: transforming growth factor beta 1 (ProSpec-Tany TechnoGene)”: the “Panc1 % to Control Mean± SEM” value in the assay on Panc1 is listed as 88.31 ± 3.68 % to Control. For the same substance, the “alterations in [Ca2+]i” value in the assay on BxPC3 [Ca2+]i is “did not determine evident alterations in [Ca^2+]i”. Moreover, in the assay with TGFβ1, the homo-oligomer formation entry was “formed homo-dimers and homo-trimers”.

Values taken from publication PMC4108065, “Inflammation and pancreatic cancer: molecular and functional interactions between S100A8, S100A9, NT-S100A8 and TGFβ1” (Cell Communication and Signaling : CCS, 2014).
